The source of these data is paper PMC9974930 (Journal of medicinal chemistry, 2023).

The first series has as its target T1, recombinant human sEH (HsEH) (Homo sapiens, UniProt P34913).
T1 sequence (P34913 1-555): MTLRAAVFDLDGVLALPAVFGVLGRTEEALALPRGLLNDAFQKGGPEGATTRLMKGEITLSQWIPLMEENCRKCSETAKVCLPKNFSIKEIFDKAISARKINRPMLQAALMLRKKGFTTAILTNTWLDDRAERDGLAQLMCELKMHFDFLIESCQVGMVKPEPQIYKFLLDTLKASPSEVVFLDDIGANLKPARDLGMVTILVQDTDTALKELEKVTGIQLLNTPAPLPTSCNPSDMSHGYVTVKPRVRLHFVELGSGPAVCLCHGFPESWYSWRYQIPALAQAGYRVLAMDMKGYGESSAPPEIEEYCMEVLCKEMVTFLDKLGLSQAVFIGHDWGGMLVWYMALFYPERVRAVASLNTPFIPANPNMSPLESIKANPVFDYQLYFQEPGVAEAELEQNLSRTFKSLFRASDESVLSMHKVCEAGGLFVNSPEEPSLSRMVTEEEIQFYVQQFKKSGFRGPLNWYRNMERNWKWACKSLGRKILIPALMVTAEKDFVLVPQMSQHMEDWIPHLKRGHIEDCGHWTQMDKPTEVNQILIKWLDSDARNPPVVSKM
The series is described as follows: biochemical.
Settings: not given
Turning to `C[C@]12C[C@@H]3C[C@](C)(C1)C[C@@](NC(=O)Nc1ccc(C(=O)N4CCCC(C(=O)O)C4)cc1F)(C3)C2` (stereo partly drawn) [A, 1-(4-(3-((1r,3R,5S,7r)-3,5-Dimethyladamantan-1-yl)ureido)-3-fluorobenzoyl)piperidine-3-carboxylic acid], the half-inhibitory concentration (IC50) (as a rule, the midpoint of a concentration-inhibition curve) amounted to 4 nM.

Staying with this series, now noted: LLE = pIC50-cLogP.
Regarding `CCN(CC)C(=O)C1CCN(C(=O)c2ccc(NC(=O)N[C@@]34C[C@@H]5C[C@@](C)(C[C@@](C)(C5)C3)C4)c(F)c2)CC1` [A1, 1-(4-(3-((1r,3R,5S,7r)-3,5-Dimethyladamantan-1-yl)ureido)-3-fluorobenzoyl)-N,N-diethylpiperidine-4-carboxamide], the “LLE (ligand lipophilicity efficiency)” value was determined as 4.954.

With `C[C@]12C[C@@H]3C[C@](C)(C1)C[C@@](NC(=O)Nc1ccc(C(=O)N4CCC(C(=O)NCCO)CC4)cc1F)(C3)C2` [A2, 1-(4-(3-((1r,3R,5S,7r)-3,5-Dimethyladamantan-1-yl)ureido)-3-fluorobenzoyl)-N-(2-hydroxyethyl)piperidine-4-carboxamide], the “LLE (ligand lipophilicity efficiency)” value was 6.203.

In the case of `CC(O)CNC(=O)C1CCN(C(=O)c2ccc(NC(=O)N[C@@]34C[C@@H]5C[C@@](C)(C[C@@](C)(C5)C3)C4)c(F)c2)CC1` (stereo partly drawn) [A3, 1-(4-(3-((1r,3R,5S,7r)-3,5-Dimethyladamantan-1-yl)ureido)-3-fluorobenzoyl)-N-(2-hydroxypropyl)piperidine-4-carboxamide], the “LLE (ligand lipophilicity efficiency)” value is given as 5.708. The same measure, in the same setting: for `C[C@]12C[C@@H]3C[C@](C)(C1)C[C@@](NC(=O)Nc1ccc(C(=O)N4CCCC(C(=O)O)C4)cc1F)(C3)C2` (stereo partly drawn) [A, 1-(4-(3-((1r,3R,5S,7r)-3,5-Dimethyladamantan-1-yl)ureido)-3-fluorobenzoyl)piperidine-3-carboxylic acid] the value was 4.979; for `CCN(CC)C(=O)C1CCCN(C(=O)c2ccc(NC(=O)N[C@]34C[C@@H]5C[C@@](C)(C[C@@](C)(C5)C3)C4)c(F)c2)C1` (stereo partly drawn) [B1, 1-(4-(3-((1r,3R,5S,7S)-3,5-Dimethyladamantan-1-yl)ureido)-3-fluorobenzoyl)-N,N-diethylpiperidine-3-carboxamide], 5.617. `C[C@]12C[C@@H]3C[C@](C)(C1)C[C@](NC(=O)Nc1ccc(C(=O)N4CCCC(C(=O)NCCO)C4)cc1F)(C3)C2` (stereo partly drawn) [B2, 1-(4-(3-((1r,3R,5S,7S)-3,5-dimethyladamantan-1-yl)ureido)-3-fluorobenzoyl)-N-(2-hydroxyethyl)piperidine-3-carboxamide]: the “LLE (ligand lipophilicity efficiency)” value came out at 7.069.

`CC(O)CNC(=O)C1CCCN(C(=O)c2ccc(NC(=O)N[C@]34C[C@@H]5C[C@@](C)(C[C@@](C)(C5)C3)C4)c(F)c2)C1` (stereo partly drawn) [B3, 1-(4-(3-((1r,3R,5S,7S)-3,5-Dimethyladamantan-1-yl)ureido)-3-fluorobenzoyl)-N-(2-hydroxypropyl)piperidine-3-carboxamide]: the “LLE (ligand lipophilicity efficiency)” value is 6.779. Same read-out and setting: for `C[C@]12C[C@@H]3C[C@](C)(C1)C[C@@](NC(=O)Nc1ccc(C(=O)N4CCCC(C(=O)N5CCN(CCO)CC5)C4)cc1F)(C3)C2` (stereo partly drawn) [B4, 1-((1r,3R,5S,7r)-3,5-Dimethyladamantan-1-yl)-3-(2-fluoro-4-(3-(4-(2-hydroxyethyl)piperazine-1-carbonyl)piperidine-1-carbonyl)phenyl)urea] the value was 6.516. On the same count and under the same terms, for `CC(C)(C)OC(=O)N1CCN(CCNC(=O)C2CCC(NC(=O)c3ccc(NC(=O)N[C@@]45C[C@@H]6C[C@@](C)(C[C@@](C)(C6)C4)C5)c(F)c3)CC2)CC1` (stereo partly drawn) [C1, Tert-butyl-4-(2-(4-(4-(3-((1r,3R,5S,7r)-3,5-dimethyladamantan-1-yl)ureido)-3-fluorobenzamido)cyclohexane-1-carboxamido)ethyl)piperazine-1-carboxylate] the value was 2.272; for `C[C@]12C[C@@H]3C[C@](C)(C1)C[C@@](NC(=O)Nc1ccc(C(=O)NC4CCC(C(=O)N5CCC(CCO)CC5)CC4)cc1F)(C3)C2` (stereo partly drawn) [C2, 4-(3-((1r,3R,5S,7r)-3,5-Dimethyladamantan-1-yl)ureido)-3-fluoro-N-(4-(4-(2-hydroxyethyl)piperidine-1-carbonyl)cyclohexyl)benzamide], 3.655. Still for that read-out and setting: for `C[C@]12C[C@@H]3C[C@](C)(C1)C[C@@](NC(=O)Nc1ccc(C(=O)NC4CCC(C(=O)NCCO)CC4)cc1F)(C3)C2` (stereo partly drawn) [C3, 4-(3-((1r,3R,5S,7r)-3,5-Dimethyladamantan-1-yl)ureido)-3-fluoro-N-(4-((2-hydroxyethyl)carbamoyl)cyclohexyl)benzamide] the value was 6.100; for `CC(O)CNC(=O)C1CCC(NC(=O)c2ccc(NC(=O)N[C@@]34C[C@@H]5C[C@@](C)(C[C@@](C)(C5)C3)C4)c(F)c2)CC1` (stereo partly drawn) [C4, 4-(3-((1r,3R,5S,7r)-3,5-Dimethyladamantan-1-yl)ureido)-3-fluoro-N-(4-((2-hydroxypropyl)carbamoyl)cyclohexyl)benzamide], 5.438. Consider `C[C@]12C[C@@H]3C[C@](C)(C1)C[C@@](NC(=O)Nc1ccc(C(=O)NC4CCC(C(=O)N(CCO)CCO)CC4)cc1F)(C3)C2` (stereo partly drawn) [C5, N-(4-(Bis(2-hydroxyethyl)carbamoyl)cyclohexyl)-4-(3-((1r,3R,5S,7r)-3,5-dimethyladamantan-1-yl)ureido)-3-fluorobenzamide], for which the “LLE (ligand lipophilicity efficiency)” value came to 5.869. Regarding `C[C@]12C[C@@H]3C[C@](C)(C1)C[C@@](NC(=O)Nc1ccc(C(=O)NC4CCC(C(N)=O)CC4)cc1F)(C3)C2` (stereo partly drawn) [C6, N-(4-Carbamoylcyclohexyl)-4-(3-((1r,3R,5S,7r)-3,5-dimethyladamantan-1-yl)ureido)-3-fluorobenzamide], the “LLE (ligand lipophilicity efficiency)” value is on record as 5.746. The same measure, in the same setting: for `C[C@]12C[C@@H]3C[C@](C)(C1)C[C@@](NC(=O)Nc1ccc(C(=O)NC4CCC(C(=O)NC(CO)CO)CC4)cc1F)(C3)C2` (stereo partly drawn) [C7, N-(4-((1,3-Dihydroxypropan-2-yl)carbamoyl)cyclohexyl)-4-(3-((1r,3R,5S,7r)-3,5-dimethyladamantan-1-yl)ureido)-3-fluorobenzamide] the value was 6.555; for `C[C@]12C[C@@H]3C[C@](C)(C1)C[C@@](NC(=O)Nc1ccc(C(=O)NC4CCC(C(=O)NC(CO)(CO)CO)CC4)cc1F)(C3)C2` (stereo partly drawn) [C8, N-(4-((1,3-Dihydroxy-2-(hydroxymethyl)propan-2-yl)carbamoyl)cyclohexyl)-4-(3-((1r,3R,5S,7r)-3,5-dimethyladamantan-1-yl)ureido)-3-fluorobenzamide], 7.653. On the same count and under the same terms, the figure for `C[C@]12C[C@@H]3C[C@](C)(C1)C[C@@](NC(=O)Nc1ccc(CN4CCCC(C(N)=O)C4)cc1F)(C3)C2` (stereo partly drawn) [D1, 1-(4-(3-((1r,3R,5S,7r)-3,5-Dimethyladamantan-1-yl)ureido)-3-fluorobenzyl)piperidine −3-carboxamide] is 6.464. Same read-out and setting: for `CN(C)C(=O)C1CCCN(Cc2ccc(NC(=O)N[C@@]34C[C@@H]5C[C@@](C)(C[C@@](C)(C5)C3)C4)c(F)c2)C1` (stereo partly drawn) [D2, 1-(4-(3-((1r,3R,5S,7r)-3,5-Dimethyladamantan-1-yl)ureido)-3-fluorobenzyl)-N,N-dimethylpiperidine-3-carboxamide] the value was 5.354; for `CCN(CC)C(=O)C1CCCN(Cc2ccc(NC(=O)N[C@@]34C[C@@H]5C[C@@](C)(C[C@@](C)(C5)C3)C4)c(F)c2)C1` (stereo partly drawn) [D3, 1-(4-(3-((1r,3R,5S,7r)-3,5-Dimethyladamantan-1-yl)ureido)-3-fluorobenzyl)-N,N-diethylpiperidine-3-carboxamide], 4.957.
